What was measured:
anti-23F antibody = assay: Mass spectrometry study of anti-23F labelling; assay type: binding, human; conditions: 10 µM cARM, 2.7 µM anti-23F, 45 hours
Procedure: To further confirm selectivity, an MS study was conducted to determine the site of labeling (Figures S10 and S11). […] No other labeling site was detected on the light chain; however, the lability of the SO2F-serine/tyrosine linkage to MS sample preparation protocols likely limited complete labeling site coverage. […] Due to the low labeling efficiency of rhamnose-AI-cARM, no labeling site could be identified. […] Determining the selectivity for antirhamnose antibodies in the presence of off-target cell surface proteins will be the focus of future in vivo studies.
Mass Spectrometry Study – Anti-23F Labelling
Anti-23F (2.7 µM) was incubated with 10 µM of Biotin-AI-cAR M 4 or Biotin-SO2F-cAR M 12, or PBS (antibody only) for 45 hours before MS analysis. Analysis was completed by Bioinformatics Solutions
Inc. Briefly, for intact protein analysis each sample was treated with PNGase F to remove glycans followed by LC-MS analysis. To determine site of labelling, each sample was digested with tryspin, chymostrypsin, and pepsin then analyzed by LC-MS/MS on a timsTOF Pro. Peptide spectra were mapped to a known antibody sequence (anti -23F antibody, Creative Biolabs - PABX-173). No labelling was identified with acyl imidazole containing cARM 4. […]
approxima tely 30% labelling post MS protocol (Figure S11)
Figure S10. Sample analysis of peptide mapping of anti-23F heavy chain. Modification with cARM 12 is […]
(1 picture or pasted object on this page, not shown here)

Hek-PSMA cells = assay: Microscopy of induced antibody recruitment (opsonization); assay type: cell-based, human; conditions: 8 μM compound with 4 μM anti-23F 24 h
Procedure: To test the antitumor immune function of rhamnose SO2F cARMs, GU was again incorporated as a TBD for PSMA targeting (compound 14, Figure 5A, Scheme S5). The ability to selectively induce opsonization of model prostate cancer cells via monoclonal anti-23F was first evaluated using fluorescence microscopy (Figure 5B, Figure S12). Compound 14 (8 μM) was incubated with anti-23F (4 μM) for 24 h followed by addition to PSMA expressing Hek-PSMA cells. Following a 20 min incubation, fluorescent secondary antibody was added. […] The addition of rhamnose competitor during the antibody labeling reaction again inhibited covalent antibody engagement and opsonization of target cells (Figure S12).
Figure 5 Functional analysis of PSMA-targeting SuFEx cARMs. A. Chemical structure of the functional GU cARM molecule used for PSMA targeting. B. Confocal (top) and fluorescent imaging (bottom) of Hek-PSMA cells treated with anti-23F only or anti-23F antibody pre-incubated with rhamnose-SO2F-cARM 14. C. Jurkat activation assay evaluation of 14 directly in polyclonal human IgG. Each cARM/ARM (9 μM) was incubated with polyclonal human IgG (230 μM) overnight and then added to pre-plated Hek-P cells (50,000 cells). […] Activation of jurkat cells was determined by measuring luciferase expression with a BioGlo assay kit. […] ADCP was determined via flow cytometry. […]

Row | SMILES | site of labelling (LC-MS/MS peptide mapping) (anti-23F antibody) | opsonization of target cells (Hek-PSMA cells)
1 | C[C@@H]1O[C@@H](OCc2cn(CCc3cn(C(=O)OCCOCCOCCOCCOCCOCCOCCOCCNC(=O)CCCC[C@@H]4SC[C@@H]5NC(=O)N[C@@H]54)cn3)nn2)[C@H](O)[C@H](O)[C@H]1O [compound 4] | No labelling | –
2 | C[C@@H]1O[C@@H](OCc2cn(CCCNC(=O)OCCNC(=O)CCCCCNC(=O)CCCCCNC(=O)CCCCCNC(=O)NCCCC[C@H](NC(=O)N[C@@H](CCC(=O)O)C(=O)O)C(=O)O)nn2)[C@H](O)[C@H](O)[C@H]1O [compound 11] | – | failed to opsonize target cells
